In ChEMBL document CHEMBL5046253, “Synthesis and bioevaluation of diaryl urea derivatives as potential antitumor agents for the treatment of human colorectal cancer” (Eur J Med Chem, 2022):

How the values were obtained:
MCF7 = assay: Antiproliferative activity against human MCF7 cells assessed as reduction in cell viability incubated for 48 hrs by MTT assay; format: functional, cell-based; details: MCF7, 48 h
HCT-116 = assay: Antiproliferative activity against human HCT-116 cells assessed as reduction in cell viability incubated for 48 hrs by MTT assay; format: functional, cell-based; details: HCT-116, 48 h
MDA-MB-231 = assay: Antiproliferative activity against human MDA-MB-231 cells assessed as reduction in cell viability incubated for 48 hrs by MTT assay; format: functional, cell-based; details: MDA-MB-231, 48 h
CNE-2 = assay: Antiproliferative activity against human CNE-2 cells assessed as reduction in cell viability incubated for 48 hrs by MTT assay; format: functional, cell-based; details: CNE-2, 48 h
HeLa = assay: Antiproliferative activity against human HeLa cells assessed as reduction in cell viability incubated for 48 hrs by MTT assay; format: functional, cell-based
[1] = target: Phosphatidylinositol 4,5-bisphosphate 3-kinase catalytic subunit alpha isoform (Homo sapiens, UniProt P42336); assay: Inhibition of PI3Kalpha (unknown origin) using PIP2 as substrate in presence of ATP incubated for 60 mins by ADP-glo based luminescence assay
Chain of Phosphatidylinositol 4,5-bisphosphate 3-kinase catalytic subunit alpha isoform (P42336 whole entry, canonical isoform): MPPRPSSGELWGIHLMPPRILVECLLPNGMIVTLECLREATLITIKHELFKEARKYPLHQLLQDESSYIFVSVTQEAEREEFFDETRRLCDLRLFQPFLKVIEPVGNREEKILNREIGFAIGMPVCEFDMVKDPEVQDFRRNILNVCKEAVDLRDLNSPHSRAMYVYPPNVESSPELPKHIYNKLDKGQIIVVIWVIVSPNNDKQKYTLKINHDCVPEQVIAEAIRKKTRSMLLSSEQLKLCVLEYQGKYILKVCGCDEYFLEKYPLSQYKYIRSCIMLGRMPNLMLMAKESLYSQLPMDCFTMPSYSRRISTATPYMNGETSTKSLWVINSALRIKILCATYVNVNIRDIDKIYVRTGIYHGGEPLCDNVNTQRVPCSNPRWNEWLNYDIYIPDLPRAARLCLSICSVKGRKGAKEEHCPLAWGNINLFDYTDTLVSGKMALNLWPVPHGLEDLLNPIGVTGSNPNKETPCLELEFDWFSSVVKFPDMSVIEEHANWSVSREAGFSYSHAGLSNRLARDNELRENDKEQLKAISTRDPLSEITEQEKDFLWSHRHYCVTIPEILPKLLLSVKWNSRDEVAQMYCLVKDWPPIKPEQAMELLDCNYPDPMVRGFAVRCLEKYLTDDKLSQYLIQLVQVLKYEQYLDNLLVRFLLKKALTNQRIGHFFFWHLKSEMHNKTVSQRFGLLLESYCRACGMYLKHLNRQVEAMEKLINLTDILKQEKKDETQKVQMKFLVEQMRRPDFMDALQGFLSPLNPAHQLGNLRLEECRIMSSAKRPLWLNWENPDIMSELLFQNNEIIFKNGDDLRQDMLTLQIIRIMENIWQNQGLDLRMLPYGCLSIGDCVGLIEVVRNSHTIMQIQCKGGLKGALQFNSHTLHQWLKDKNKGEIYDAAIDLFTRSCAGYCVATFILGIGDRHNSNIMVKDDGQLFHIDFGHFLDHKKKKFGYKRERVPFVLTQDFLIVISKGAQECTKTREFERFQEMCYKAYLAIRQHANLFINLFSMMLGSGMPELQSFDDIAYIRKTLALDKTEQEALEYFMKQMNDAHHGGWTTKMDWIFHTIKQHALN

HepG2 = assay: Antiproliferative activity against human HepG2 cells assessed as reduction in cell viability incubated for 48 hrs by MTT assay; format: functional, cell-based; details: HepG2, 48 h
[2] = target: Serine/threonine-protein kinase mTOR (Homo sapiens, UniProt P42345); assay: Inhibition of mTOR (unknown origin) using U-Light-4E-BP1 peptide as a substrate in presence of ATP incubated for 45 mins by Lance ultra assay
A-431 = assay: Antiproliferative activity against human A431 cells harboring wild type EGFR mutant assessed as reduction in cell viability incubated for 72 hrs by celltiter-glo assay; format: functional, cell-based; details: A-431, 72 h
NCI-H1975 = assay: Antiproliferative activity against human NCI-H1975 cells harboring EGFR L858R/T790M double mutant assessed as reduction in cell viability incubated for 72 hrs by celltiter-glo assay; format: functional, cell-based; details: NCI-H1975, 72 h
BaF3 = assay: Antiproliferative activity against mouse BaF3 cells harboring EGFR L858R/T790M/C797S mutant assessed as reduction in cell viability incubated for 72 hrs by celltiter-glo assay; format: toxicity, cell-based; details: BaF3, 72 h
[3] = target: T1, Phosphatidylinositol 4,5-bisphosphate 3-kinase catalytic subunit delta isoform (Homo sapiens, UniProt O00329); assay: Inhibition of PI3Kdelta (unknown origin) using PIP2 as substrate in presence of ATP incubated for 60 mins by ADP-glo based luminescence assay
T1 sequence (O00329 whole entry): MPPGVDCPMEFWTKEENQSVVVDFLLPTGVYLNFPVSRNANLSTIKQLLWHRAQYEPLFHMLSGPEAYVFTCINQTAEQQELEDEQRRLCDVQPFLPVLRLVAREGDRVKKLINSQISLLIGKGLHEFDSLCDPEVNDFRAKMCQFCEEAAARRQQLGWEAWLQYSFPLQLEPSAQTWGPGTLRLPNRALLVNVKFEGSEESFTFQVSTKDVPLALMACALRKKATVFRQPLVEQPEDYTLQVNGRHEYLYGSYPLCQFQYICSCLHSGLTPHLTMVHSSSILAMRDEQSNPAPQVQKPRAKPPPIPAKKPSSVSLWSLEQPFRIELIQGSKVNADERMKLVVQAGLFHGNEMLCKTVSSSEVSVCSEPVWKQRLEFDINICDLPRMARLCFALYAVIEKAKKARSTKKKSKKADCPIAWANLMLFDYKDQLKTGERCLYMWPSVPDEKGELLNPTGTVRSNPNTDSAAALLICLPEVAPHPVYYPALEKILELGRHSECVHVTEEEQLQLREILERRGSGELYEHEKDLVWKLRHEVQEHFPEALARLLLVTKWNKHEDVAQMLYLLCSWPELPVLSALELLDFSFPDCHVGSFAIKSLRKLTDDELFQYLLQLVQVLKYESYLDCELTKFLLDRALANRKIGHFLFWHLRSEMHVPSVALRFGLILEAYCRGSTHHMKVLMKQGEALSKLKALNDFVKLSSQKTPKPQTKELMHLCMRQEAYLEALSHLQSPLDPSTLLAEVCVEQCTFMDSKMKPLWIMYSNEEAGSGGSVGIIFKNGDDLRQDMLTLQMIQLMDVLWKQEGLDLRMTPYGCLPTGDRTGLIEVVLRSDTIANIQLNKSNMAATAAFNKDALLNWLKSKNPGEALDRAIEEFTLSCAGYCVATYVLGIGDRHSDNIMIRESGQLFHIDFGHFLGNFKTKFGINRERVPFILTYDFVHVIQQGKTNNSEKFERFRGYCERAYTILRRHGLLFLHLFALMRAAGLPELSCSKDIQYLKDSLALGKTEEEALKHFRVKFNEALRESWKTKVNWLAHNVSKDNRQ

[4] = target: Phosphatidylinositol 4,5-bisphosphate 3-kinase catalytic subunit gamma isoform (Homo sapiens, UniProt P48736); assay: Inhibition of PI3Kgamma (unknown origin) using PIP2 as substrate in presence of ATP incubated for 60 mins by ADP-glo based luminescence assay
Chain of Phosphatidylinositol 4,5-bisphosphate 3-kinase catalytic subunit gamma isoform (P48736 whole entry, canonical isoform): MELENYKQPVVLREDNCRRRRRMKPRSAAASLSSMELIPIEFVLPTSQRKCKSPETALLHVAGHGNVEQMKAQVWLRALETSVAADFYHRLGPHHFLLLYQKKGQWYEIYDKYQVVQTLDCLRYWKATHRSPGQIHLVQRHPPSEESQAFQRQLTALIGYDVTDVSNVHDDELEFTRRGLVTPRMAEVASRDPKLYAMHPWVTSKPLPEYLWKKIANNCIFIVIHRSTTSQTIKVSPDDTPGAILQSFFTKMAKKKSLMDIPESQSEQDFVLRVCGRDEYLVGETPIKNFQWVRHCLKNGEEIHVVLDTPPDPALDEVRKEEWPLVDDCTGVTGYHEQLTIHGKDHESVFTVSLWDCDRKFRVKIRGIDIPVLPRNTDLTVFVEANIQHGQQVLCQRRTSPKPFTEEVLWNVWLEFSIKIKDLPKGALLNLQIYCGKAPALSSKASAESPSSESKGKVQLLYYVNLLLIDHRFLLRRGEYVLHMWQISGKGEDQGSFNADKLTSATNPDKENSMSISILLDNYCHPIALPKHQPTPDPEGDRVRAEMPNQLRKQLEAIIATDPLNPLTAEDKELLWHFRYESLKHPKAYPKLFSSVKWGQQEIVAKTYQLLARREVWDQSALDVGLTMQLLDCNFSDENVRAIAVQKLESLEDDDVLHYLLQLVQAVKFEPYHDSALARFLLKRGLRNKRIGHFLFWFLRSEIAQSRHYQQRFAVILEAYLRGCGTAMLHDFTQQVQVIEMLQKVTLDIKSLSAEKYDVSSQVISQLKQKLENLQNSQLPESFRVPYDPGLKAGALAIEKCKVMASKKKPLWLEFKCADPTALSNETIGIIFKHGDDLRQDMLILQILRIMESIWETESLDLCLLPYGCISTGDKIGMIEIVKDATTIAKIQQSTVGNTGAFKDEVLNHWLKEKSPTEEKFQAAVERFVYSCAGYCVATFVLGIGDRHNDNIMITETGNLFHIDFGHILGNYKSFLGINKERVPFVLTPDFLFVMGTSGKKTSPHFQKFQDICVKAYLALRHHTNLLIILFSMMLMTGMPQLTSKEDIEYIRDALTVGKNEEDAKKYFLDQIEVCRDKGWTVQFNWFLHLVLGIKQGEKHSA

[5] = target: Phosphatidylinositol 4,5-bisphosphate 3-kinase catalytic subunit beta isoform (Homo sapiens, UniProt P42338); assay: Inhibition of PI3Kbeta (unknown origin) using PIP2 as substrate in presence of ATP incubated for 60 mins by ADP-glo based luminescence assay
Chain of Phosphatidylinositol 4,5-bisphosphate 3-kinase catalytic subunit beta isoform (P42338 whole entry, canonical isoform): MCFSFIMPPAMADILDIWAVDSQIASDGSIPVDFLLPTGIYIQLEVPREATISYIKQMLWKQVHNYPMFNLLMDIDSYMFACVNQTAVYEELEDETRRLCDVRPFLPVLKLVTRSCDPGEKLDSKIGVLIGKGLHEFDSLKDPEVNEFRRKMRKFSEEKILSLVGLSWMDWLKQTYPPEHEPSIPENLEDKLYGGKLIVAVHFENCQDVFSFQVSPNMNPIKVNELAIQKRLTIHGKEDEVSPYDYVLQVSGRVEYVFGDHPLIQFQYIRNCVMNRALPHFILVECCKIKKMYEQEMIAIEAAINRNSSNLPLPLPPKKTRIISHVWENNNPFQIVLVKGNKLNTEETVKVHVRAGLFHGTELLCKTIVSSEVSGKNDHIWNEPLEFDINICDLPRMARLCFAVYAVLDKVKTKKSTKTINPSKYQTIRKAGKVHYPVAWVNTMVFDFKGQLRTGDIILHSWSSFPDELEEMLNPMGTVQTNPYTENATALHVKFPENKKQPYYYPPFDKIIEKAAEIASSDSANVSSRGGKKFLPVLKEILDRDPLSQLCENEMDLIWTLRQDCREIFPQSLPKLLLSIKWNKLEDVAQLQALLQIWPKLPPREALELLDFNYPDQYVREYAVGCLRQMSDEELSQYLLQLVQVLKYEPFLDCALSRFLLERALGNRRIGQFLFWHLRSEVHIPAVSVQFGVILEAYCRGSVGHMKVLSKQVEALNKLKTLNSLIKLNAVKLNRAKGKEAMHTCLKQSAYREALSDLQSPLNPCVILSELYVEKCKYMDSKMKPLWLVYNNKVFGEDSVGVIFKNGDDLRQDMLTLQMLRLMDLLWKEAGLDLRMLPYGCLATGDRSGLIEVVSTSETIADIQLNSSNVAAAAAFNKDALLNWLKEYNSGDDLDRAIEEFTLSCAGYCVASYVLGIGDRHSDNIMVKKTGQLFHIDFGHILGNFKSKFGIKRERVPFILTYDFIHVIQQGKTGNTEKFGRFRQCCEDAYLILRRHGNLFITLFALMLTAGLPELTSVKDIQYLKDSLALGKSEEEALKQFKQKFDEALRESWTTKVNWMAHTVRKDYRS

Compound	IC50 (MCF7) [µM]	IC50 (HCT-116) [µM]	IC50 (MDA-MB-231) [µM]	IC50 (HeLa) [µM]	IC50 [1] [µM]	IC50 (HepG2) [µM]	IC50 [2] [µM]	IC50 (A-431) [µM]	IC50 (NCI-H1975) [µM]	IC50 [3] [µM]	IC50 [4] [µM]	IC50 [5] [µM]	IC50 (CNE-2) [µM]	IC50 (BaF3) [µM]
C[C@@H]1COCCN1c1nc(-c2ccc(NC(=O)Nc3ccc(C(=O)N4CCC[C@H]4C(N)=O)cc3)cc2)nc(N2CCOCC2)n1	3.5	2.19	1.3	0.46	0.0018	1.03	0.001	–	–	–	–	–	0.35	–
NC(=O)[C@@H]1CCCN1C(=O)Nc1ccc(-c2nccc(N3CCOCC3)n2)cc1	–	–	–	–	> 1	–	0.0103	–	–	–	–	–	–	–
NC(=O)[C@H]1CCCN1C(=O)c1ccc(NC(=O)Nc2ccc(-c3cc(N4CCOCC4)nc(N4CCOCC4)n3)cc2)cc1	–	6.13	16.4	6.98	0.0057	–	0.0073	–	–	–	–	–	3.83	–
CN(C)C1CCN(C(=O)c2ccc(NC(=O)Nc3ccc(-c4nc(N5CCOCC5)nc(N5C[C@@H]6OCCO[C@H]6C5)n4)cc3)cc2)CC1	2.26	1.3	1.92	7.94	0.0102	0.2	0.0048	–	–	–	–	–	0.29	–
NC(=O)[C@@H]1CCCN1C(=O)c1ccc(NC(=O)Nc2ccc(-c3cc(N4CCOCC4)nc(N4CCOCC4)n3)cc2)cc1	7.89	8.04	11.3	13.5	0.0138	24.2	0.0074	–	–	–	–	–	1.95	–
C[C@H]1COCCN1c1ccnc(-c2ccc(NC(=O)Nc3ccc(C(=O)N4CCC[C@H]4C(N)=O)cc3)cc2)n1	–	–	–	–	0.0287	–	0.0092	–	–	–	–	–	–	–

More lines, main results first:

IC50 (MCF7) [µM]	IC50 (HCT-116) [µM]	IC50 (MDA-MB-231) [µM]	IC50 (HeLa) [µM]	IC50 [1] [µM]	IC50 (HepG2) [µM]	IC50 [2] [µM]	IC50 (A-431) [µM]	IC50 (NCI-H1975) [µM]	IC50 [3] [µM]	IC50 [4] [µM]	IC50 [5] [µM]	Compound	IC50 (CNE-2) [µM]	IC50 (BaF3) [µM]
9.03	2.7	10.4	9.71	0.019	10.4	0.0042	–	–	–	–	–	COC(=O)[C@@H]1CCCN1C(=O)c1ccc(NC(=O)Nc2ccc(-c3nc(N4CCOCC4)nc(N4CCOCC4)n3)cc2)cc1	3.99	–
10.5	1.96	9.89	15.6	0.0019	–	0.002	–	–	–	–	–	NC(=O)[C@@H]1C[C@@H]2C[C@@H]2N1C(=O)c1ccc(NC(=O)Nc2ccc(-c3nc(N4CCOCC4)nc(N4CCOCC4)n3)cc2)cc1	9.16	–
–	2.51	14.6	12	0.007	–	0.0022	2.5	2.88	0.0291	0.0194	0.0149	CN(C)[C@@H]1C[C@@H](C(N)=O)N(C(=O)c2ccc(NC(=O)Nc3ccc(-c4nc(N5CCOCC5)nc(N5CCOCC5)n4)cc3)cc2)C1	7.89	3.35
–	–	–	–	0.68	–	–	–	–	–	–	–	NC(=O)[C@@H]1CCCN1C(=O)c1cnc(Nc2ccc(-c3nc(N4CCOCC4)nc(N4CCOCC4)n3)cc2)nc1	–	–
–	0.78	0.62	0.56	0.0043	–	0.0057	–	–	–	–	–	NC(=O)[C@@H]1CCCN1C(=O)c1ccc(NC(=O)Nc2ccc(-c3nc(N4CCOCC4)nc(N4C[C@@H]5OCCO[C@H]5C4)n3)cc2)cc1	0.95	–
3.81	1.51	0.9	1.39	0.0007	0.51	0.0019	0.585	2.44	–	–	–	NC(=O)C1CCN(C(=O)c2ccc(NC(=O)Nc3ccc(-c4nc(N5CCOCC5)nc(N5CCOCC5)n4)cc3)cc2)CC1	4.17	0.292
–	–	–	–	> 1	–	–	–	–	–	–	–	NC(=O)[C@@H]1CCCN1C(=O)c1ccc(NC(=O)Nc2ccc(-c3cc(N4CCOCC4)ncn3)cc2)cc1	–	–
